Literature values in patent publication US20230310317A1, “SOL-GEL COMPOSITION” (THE UNIVERSITY OF QUEENSLAND, priority 2020, published 2023).

Settings: aqueous media e.g. gel-based systems

**Q.** Which “Solubility in aqueous media” value does the source give for `C[C@@H]1C[C@H]2[C@@H]3CCC4=CC(=O)C=C[C@]4(C)[C@@]3(Cl)[C@@H](O)C[C@]2(C)[C@@]1(OC(=O)c1ccco1)C(=O)CCl` [MF, mometasone furoate] here?
**A.** practically insoluble
